Experiment [1] addresses T1, Polθ ATPase (Homo sapiens, UniProt O75417).
T1 construct: purified truncated POLQ-N protein (aa 1-894, N-terminal 6-His tag); 6-His (N)
In words: Polθ ATPase activity assay (ADP-Glo Kinase Assay kit). The experiment is classed as biochemical. The settings on record: truncated POLQ-N protein (aa 1-894) 1 nM, 50 nM ssDNA, 50 µM ATP. Here is the method:
The inhibitory efficiency of the compounds of formula (I) against Polθ ATPase activity was determined using the ADP-Glo Kinase Assay kit (Promega, V9101). […] The starting (final) concentration was 100 nM, followed by a 3-fold serial dilution for a total of 10 concentration points in duplicate (n=2). 5 μL of purified […], N-terminal 6-His tag) was added to each well. After centrifugation at 1000 rpm for 1 minute, the plate was incubated at 25°C for 10 minutes. 5 μL of substrate reaction solution (containing ATP & ssDNA) was added to each well, and the reaction was carried out at 25°C for 60 minutes. 5 μL of ADP-Glo Reagent was added to each well. After centrifugation at 1000 rpm for 1 minute, the plate was incubated at 25°C for 40 minutes. 10 μL of detection solution was added to each well. After centrifugation at 1000 rpm for 1 minute, the plate was incubated at 25°C for 40 minutes. Luminescence signals were recorded using a microplate reader (BMG, PHERAstar FSX). The final reaction system contained 1 nM of POLQ-N enzyme; 50 nM of ssDNA ([NT]); 50 μM of ATP; and 1% DMSO. The inhibition percentage (%) of the compound at each concentration was calculated using the RFU values normalized against the control wells within each assay plate. Table 1: Inhibitory activity of compounds against Polθ ATPase
(In general: ADP-Glo first removes unused ATP, then detects ADP through luciferase.)

Experiment [2] concerns DLD-1 BRCA2-/- cells. Put plainly: DLD-1 BRCA2-/- cell proliferation assay (CellTiter-Glo, 10 days incubation). The class given is cell-based. The settings on record: Homo sapiens, 240 h, DLD-1 BRCA2-/- cell line, total incubation period of 10 days, read-out: DLD1 BRCA2^-/- IC50. The source says: The anti-proliferative effect of the compounds on the human colorectal adenocarcinoma cell line DLD-1 BRCA2^-/- method.
• DLD-1 (purchased from ATCC, Cat. No.: CCL-221, Batch No.: 70033255); • RPMI1640 (purchased from Invitrogen, Cat. No.: 11875-085); • 0.25% Trypsin-EDTA (purchased from Invitrogen, Cat. No.: 25200-072); • Penicillin-Streptomycin solution (purchased from Hyclone, Cat. No.: SV30010); • FBS (purchased from BI, Cat. No.: 04-002-1A); • DMSO (purchased from Sigma, Cat. No.: D4540-1L); • 96-well plate (purchased from Corning, Cat. No.: CLS3903); • CellTiter-Glo reagent (purchased from Promega, Cat. No.: G7558).
The anti-proliferative effect of the compounds on a human colorectal adenocarcinoma cell line was evaluated using an ATP quantification method, wherein the measured activity correlates well with the number of viable cells. The genetically edited cell line DLD-1 BRCA2^-/- was cultured in RPMI 1640 medium (Invitrogen, 11875-085) supplemented with 10% (v/v) fetal bovine serum (BI, 04-002-1A). The cell line was cultured according to the standard instructions of the American Type Culture Collection (ATCC) and identified via short tandem repeat (STR) genotyping.
In the proliferation assay, cells were harvested and resuspended in cell culture medium. Cell density was determined using a cell counter. An appropriate volume of cell suspension was aspirated from the centrifuge tube to prepare a plating working solution (150 cells/100 µL for the DLD-1 BRCA2^-/- cell line). 100 µL of the cell suspension was seeded into each well of a 96-well plate (Corning, 3603) and incubated overnight in an incubator. The diluted test compound solutions were added to the wells. On the fourth and seventh days of compound incubation, the medium was replaced with fresh culture medium, and the compounds were re-administered, for a total incubation period of 10 days. Following incubation, the cell culture plates were removed and equilibrated to room temperature. 100 µL of CellTiter-Glo (Promega, G7558) was added to each well, and the plate was incubated at room temperature for 30 minutes. Data were read using a microplate reader (PerkinElmer, Enspire) in 96-well luminescence mode. Data analysis, curve fitting, and reporting were performed using the dose-response one-site 205 model of IDBS XL fit. Table 2: Proliferation inhibitory activity of compounds against DLD-1 BRCA2-/- cells

For experiment [3], the system named is Theta-mediated end joining (TMEJ) process in HEK293T cells. In words: TMEJ reporter assay (NanoGlo luciferase). The settings on record: Homo sapiens, HEK-293T, HEK293T cells electroporated with TMEJ substrate, 24 hours. The experiment is classed as cell-based. Here is the method: The inhibitory effect of the compounds on the Theta-mediated end joining (TMEJ) process was evaluated.
(1) HEK293T cells were cultured in DMEM supplemented with 10% heat-inactivated fetal bovine serum (FBS) and 1% penicillin-streptomycin (PS). (2) Prior to startup, the Neon transfection system was disinfected, and E2 and R buffers were equilibrated to room temperature. (3) Culture medium without antibiotics was pre-warmed. (4) Cells in the flask reaching 80-90% confluency were trypsinized, neutralized with culture medium, centrifuged, and counted. (5) For transfection using a 100 µL electroporation tip, 2 × 10^6 cells were taken, washed once with DPBS (without Mg^2+ and Ca^2+), centrifuged at 1000 rpm for 5 min, and the supernatant was discarded. The number of cells and volume may be increased as required. (6) The Neon system was set up; a Neon tube was inserted into the Neon pipette and E2 buffer was added. (7) 10 µg of TMEJ substrate was added to 100 µL of R solution; the volume may be increased as required. (8) Cells were resuspended in DNA buffer, and electroporation was initiated according to the following parameters:
(9) The cells were loaded into antibiotic-free culture medium and mixed gently. (10) Steps (8)-(9) were repeated as necessary, and cells were seeded into 384-well plates at a density of 40,000 cells/well in 40 µL of culture medium. (11) The plates were incubated in a humidified CO2 incubator at 37°C for 24 hours. (12) NanoGlo reagent was warmed to room temperature, and NanoGlo buffer was mixed with the substrate at a ratio of 50:1. (13) The cell culture plates were equilibrated at room temperature for 10 minutes. (14) 40 µL of NanoGlo substrate buffer was added to each well, followed by shaking at 300 rpm for 3 minutes protected from light. (15) Signals were read via a BMG PHERAstar FSX.
(In general: Reporter assays use an easily measured gene product as a stand-in for the process of interest.)

Some results are limits rather than exact numbers.

T1 sequence (O75417 1-894): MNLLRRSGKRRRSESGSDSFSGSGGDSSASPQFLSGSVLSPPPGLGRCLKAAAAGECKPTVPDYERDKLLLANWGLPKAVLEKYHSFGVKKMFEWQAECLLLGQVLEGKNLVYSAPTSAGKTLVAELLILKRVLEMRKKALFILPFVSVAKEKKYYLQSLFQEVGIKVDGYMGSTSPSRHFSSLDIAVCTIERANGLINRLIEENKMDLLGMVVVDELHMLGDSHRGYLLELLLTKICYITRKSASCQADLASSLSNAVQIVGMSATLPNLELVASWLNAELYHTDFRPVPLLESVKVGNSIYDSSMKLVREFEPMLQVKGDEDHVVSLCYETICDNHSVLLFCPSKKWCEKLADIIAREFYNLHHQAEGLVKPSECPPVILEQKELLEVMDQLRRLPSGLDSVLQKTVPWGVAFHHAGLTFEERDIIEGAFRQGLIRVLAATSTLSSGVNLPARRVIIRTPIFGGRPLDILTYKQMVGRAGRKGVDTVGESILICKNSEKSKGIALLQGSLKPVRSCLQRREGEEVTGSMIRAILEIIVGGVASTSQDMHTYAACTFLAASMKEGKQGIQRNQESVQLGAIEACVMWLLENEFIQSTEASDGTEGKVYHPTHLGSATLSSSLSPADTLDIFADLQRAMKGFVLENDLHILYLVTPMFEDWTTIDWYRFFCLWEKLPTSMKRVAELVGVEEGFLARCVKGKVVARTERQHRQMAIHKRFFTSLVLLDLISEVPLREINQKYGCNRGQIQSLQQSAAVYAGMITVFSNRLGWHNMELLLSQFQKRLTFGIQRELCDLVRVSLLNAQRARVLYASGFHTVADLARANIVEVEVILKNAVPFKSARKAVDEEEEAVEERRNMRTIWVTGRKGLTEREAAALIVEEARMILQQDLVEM

Turning to `COc1ccc(C(F)F)cc1-c1cc(C)ccc1C(=O)NS(=O)(=O)Cc1ccc([C@H](C)OC)cc1` [cpd-3, (S)-5'-(difluoromethyl)-2'-methoxy-N-((4-(1-methoxyethyl)benzyl)sulfonyl)-5-methyl-[1,1'-biphenyl]-2-carboxamide], the results for the IC50 in experiment [1] (class symbols), in experiment [1] (specific values) and in experiment [2] were no more than 2 nM, 0.71 nM and 24 nM, respectively.
On to `COc1cnc(C(F)F)cc1-c1cc(C)ccc1C(=O)NS(=O)(=O)Cc1ccc([C@H](C)OC)cc1` [cpd-4, (S)-2-(2-(Difluoromethyl)-5-methoxypyridin-4-yl)-N-((4-(1-methoxyethyl)benzyl)sulfonyl)-4-methylbenzamide], for which the IC50 in experiment [3] was 1 nM; in experiment [1] (class symbols), no more than 2 nM; in experiment [1] (specific values) it was 0.65 nM; in experiment [2] it was 17 nM.
In the same order, the values of `COc1ccc(C(F)F)cc1-c1cc(C)ncc1C(=O)NS(=O)(=O)Cc1ccc([C@H](C)OC)cc1` [cpd-5, (S)-4-(5-(Difluoromethyl)-2-methoxyphenyl)-N-((4-(1-methoxyethyl)benzyl)sulfonyl)-6-methylnicotinamide] are 1 nM, no more than 2 nM, 0.5 nM and 27 nM.
As to `COc1cnc(C(F)F)cc1-c1cc(C)ncc1C(=O)NS(=O)(=O)Cc1ccc([C@H](C)OC)cc1` [cpd-6, (S)-2'-(Difluoromethyl)-5'-methoxy-N-((4-(1-methoxyethyl)benzyl)sulfonyl)-6-methyl-[4,4'-bipyridine]-3-carboxamide], the figures for the IC50 in experiment [1] (class symbols), in experiment [1] (specific values) and in experiment [2] were no more than 2 nM, 0.6 nM and 189 nM, respectively.
For `COc1ccc(C(F)F)cc1-c1cc(C)ccc1C(=O)NS(=O)(=O)Cc1ccc([C@@H](C)OC)cc1` [cpd-7, (R)-5'-(Difluoromethyl)-2'-methoxy-N-((4-(1-methoxyethyl)benzyl)sulfonyl)-5-methyl-[1,1'-biphenyl]-2-carboxamide], the IC50 was no more than 2 nM in experiment [1] (class symbols), 0.71 nM in experiment [1] (specific values) and 59 nM in experiment [2].
Take `COc1ccc(C(F)F)cc1-c1cc(C)ncc1C(=O)NS(=O)(=O)Cc1ccc([C@@H](C)OC)cc1` [cpd-9, (R)-4-(5-(Difluoromethyl)-2-methoxyphenyl)-N-((4-(1-methoxyethyl)benzyl)sulfonyl)-6-methylnicotinamide]: the IC50 in experiment [1] (class symbols) is no more than 2 nM; in experiment [1] (specific values) it was 0.52 nM; in experiment [2] it was 63 nM.
As for `COc1cnc(C(F)F)cc1-c1cc(C)ncc1C(=O)NS(=O)(=O)Cc1ccc([C@@H](C)OC)cc1` [cpd-10, (R)-2'-(Difluoromethyl)-5'-methoxy-N-((4-(1-methoxyethyl)benzyl)sulfonyl)-6-methyl-[4,4'-bipyridine]-3-carboxamide], the IC50 is no more than 2 nM in experiment [1] (class symbols), 1.1 nM in experiment [1] (specific values) and 514 nM in experiment [2].
Taken in the same sequence, the figures for `COc1ccc(C(F)F)cc1-c1cc(CC(=O)N(C)C2CC2)ccc1C(=O)NS(=O)(=O)Cc1ccc(C(C)C)cc1` [cpd-12, 5-(2-(Cyclopropyl(methyl)amino)-2-oxoethyl)-5'-(difluoromethyl)-N-((4-isopropylbenzyl)sulfonyl)-2'-methoxy-[1,1'-biphenyl]-2-carboxamide] were no more than 2 nM, 1 nM and 70 nM.
In the same order, the values of `COc1ccc(C(F)F)cc1-c1cc(Cc2nnc(C)o2)ccc1C(=O)NS(=O)(=O)Cc1ccc(C(C)C)cc1` [cpd-13, 5'-(Difluoromethyl)-N-((4-isopropylbenzyl)sulfonyl)-2'-methoxy-5-((5-methyl-1,3,4-oxadiazol-2-yl)methyl)-[1,1'-biphenyl]-2-carboxamide] are no more than 2 nM, 0.88 nM and 202 nM.
Taken in the same sequence, the figures for `COc1ccc(C(F)F)cc1-c1cc(C)ccc1C(=O)NS(=O)(=O)Cc1ccc(C(OC)C(F)(F)F)cc1` (stereo not shown) [cpd-14, 5'-(Difluoromethyl)-2'-methoxy-5-methyl-N-((4-(2,2,2-trifluoro-1-methoxyethyl)benzyl)sulfonyl)-[1,1'-biphenyl]-2-carboxamide] were no more than 2 nM, 1.6 nM and 108 nM.
Regarding `COc1ccc(C(F)F)cc1-c1cc(C)ccc1C(=O)NS(=O)(=O)Cc1ccc(COC(F)F)cc1` [cpd-15, N-((4-((Difluoromethoxy)methyl)benzyl)sulfonyl)-5'-(difluoromethyl)-2'-methoxy-5-methyl-[1,1'-biphenyl]-2-carboxamide], the IC50 in experiment [2] was found to be 154 nM.
With `COc1ccc(C(F)F)cc1-c1cc(C)ccc1C(=O)NS(=O)(=O)Cc1ccc(C(C)OC)nc1` (stereo not shown) [cpd-20, 5'-(Difluoromethyl)-2'-methoxy-N-(((6-(1-methoxyethyl)pyridin-3-yl)methyl)sulfonyl)-5-methyl-[1,1'-biphenyl]-2-carboxamide], the IC50 is no more than 2 nM in experiment [1] (class symbols) and 1.4 nM in experiment [1] (specific values).
For the compound `[2H]C([2H])([2H])O[C@@H](C)c1ccc(CS(=O)(=O)NC(=O)c2ccc(C([2H])([2H])[2H])cc2-c2nc(C(F)F)c(F)cc2OC)cc1` [cpd-23, (S)-2-(6-(Difluoromethyl)-5-fluoro-3-methoxypyridin-2-yl)-N-((4-(1-(methoxy-d3)ethyl)benzyl)sulfonyl)-4-(methyl-d3)benzamide], the IC50 in experiment [2] amounted to 22 nM.
Still for that read-out and setting: the figure for `[2H]C([2H])([2H])O[C@@H](C)c1ccc(CS(=O)(=O)NC(=O)c2ccc(C([2H])([2H])[2H])cc2-c2cc(C(F)F)c(F)nc2OC)cc1` [cpd-24, (S)-2-(5-(Difluoromethyl)-6-fluoro-2-methoxypyridin-3-yl)-N-((4-(1-(methoxy-d3)ethyl)benzyl)sulfonyl)-4-(methyl-d3)benzamide] is 33 nM.

The values above are taken from patent publication EP4782434A1, “N-SULFONYL CARBOXAMIDE COMPOUND, AND PREPARATION METHOD THEREFOR AND USE THEREOF” (Nutshell Therapeutics (Shanghai) Co., Ltd., priority 2023, dated 2025).
